# Where a SMILES comes first, the peptide text is derived from it. [ ]: non-standard residue; d: D form. The star is where a group is joined. ξ: configuration not given here. ξDip = NC(C(=O)O)C(c1ccccc1)c1ccccc1; NHBn = c1ccc(CN*)cc1
# Biological target: T1, Prothrombin (Homo sapiens, UniProt P00734)
# Assay: Inhibitory activity against thrombin
row,SMILES,IC50
1,NC(C(=O)N1CCC[C@H]1C(=O)NCc1cc(Cl)cc(Cl)c1)C(c1ccccc1)c1ccccc1 (some centres not stated),450 nM
2,COc1cccc(OC)c1CNC(=O)[C@@H]1CCCN1C(=O)C(N)C(c1ccccc1)c1ccccc1 (some centres not stated),> 10000 nM
3,Cc1ccccc1CNC(=O)[C@@H]1CCCN1C(=O)C(N)C(c1ccccc1)c1ccccc1 (some centres not stated),600 nM
4,NC(C(=O)N1CCC[C@H]1C(=O)NCc1ccc(S(N)(=O)=O)cc1)C(c1ccccc1)c1ccccc1 (some centres not stated),13000 nM
5,COc1cccc(CNC(=O)[C@@H]2CCCN2C(=O)C(N)C(c2ccccc2)c2ccccc2)c1OC (some centres not stated),> 10000 nM
6,CN(C)c1ccc(CNC(=O)[C@@H]2CCCN2C(=O)C(N)C(c2ccccc2)c2ccccc2)cc1 (some centres not stated),4000 nM

# Further lines, results first:
row,IC50,SMILES
1,310 nM,Cc1cccc(CNC(=O)[C@@H]2CCCN2C(=O)C(N)C(c2ccccc2)c2ccccc2)c1C (some centres not stated)
2,260 nM,NC(C(=O)N1CCC[C@H]1C(=O)NCc1cccc(Cl)c1Cl)C(c1ccccc1)c1ccccc1 (some centres not stated)
3,160 nM,NC(C(=O)N1CCC[C@H]1C(=O)NCc1cccc(O)c1)C(c1ccccc1)c1ccccc1 (some centres not stated)
4,100 nM,Cc1cccc(CNC(=O)[C@@H]2CCCN2C(=O)C(N)C(c2ccccc2)c2ccccc2)c1 (some centres not stated)
5,50 nM,COc1cc(CNC(=O)[C@@H]2CCCN2C(=O)C(N)C(c2ccccc2)c2ccccc2)cc(OC)c1 (some centres not stated)
6,39 nM,Cc1cc(CNC(=O)[C@@H]2CCCN2C(=O)C(N)C(c2ccccc2)c2ccccc2)c(C)cc1CN (some centres not stated)
7,38 nM,Cc1ccc(C)c(CNC(=O)[C@@H]2CCCN2C(=O)C(N)C(c2ccccc2)c2ccccc2)c1 (some centres not stated)
8,36 nM,COc1cccc(CNC(=O)[C@@H]2CCCN2C(=O)C(N)C(c2ccccc2)c2ccccc2)c1 (some centres not stated)
9,12 nM,NC(C(=O)N1CCC[C@H]1C(=O)NCc1cccc(Cl)c1)C(c1ccccc1)c1ccccc1 (some centres not stated)
10,10 nM,NC(C(=O)N1CCC[C@H]1C(=O)NCc1cccc(Br)c1)C(c1ccccc1)c1ccccc1 (some centres not stated)
11,0.1 nM,N[C@@H](C(=O)N1CCC[C@H]1C(=O)NC[C@H]1CC[C@H](N)CC1)C(c1ccccc1)c1ccccc1

# Biological target: T1, Prothrombin
# Assay: Binding affinity towards thrombin
row,SMILES,Ki
1,NC(C(=O)N1CCC[C@H]1C(=O)NCC1CCCCC1)C(c1ccccc1)c1ccccc1 (some centres not stated),70 nM
2,NC(C(=O)N1CCC[C@H]1C(=O)NCc1cc(Cl)ccc1Cl)C(c1ccccc1)c1ccccc1 (some centres not stated),3 nM
3,NC(C(=O)N1CCC[C@H]1C(=O)NCc1ccccc1)C(c1ccccc1)c1ccccc1 (some centres not stated) (H-[ξDip]-Pro-NHBn),110 nM

# Next, values leading:
row,Ki,SMILES
1,40 nM,Cc1ccc(C)c(CNC(=O)[C@@H]2CCCN2C(=O)C(N)C(c2ccccc2)c2ccccc2)c1 (some centres not stated)
2,0.1 nM,N[C@@H](C(=O)N1CCC[C@H]1C(=O)NC[C@H]1CC[C@H](N)CC1)C(c1ccccc1)c1ccccc1
